From patent US7494984B2, “Substituted imidazo[1,2-a]pyrimidines as HIV viral DNA integrase inhibitors” (priority 2005, dated 2009) come the findings set out here.

Each structure is given as a SMILES string.

Data set [1] addresses T1, HIV-integrase (Human immunodeficiency virus type 1 group M subtype B, UniProt P12497).
T1 construct: Recombinant integrase (0.26 ng) was incubated with the beads
Nature of the data set: HIV-Integrase Inhibition Activity (SPA strand transfer assay). It is filed as biochemical. The conditions noted are these: recombinant integrase, biotin labeled substrate DNA on SPA beads, P33 labeled target DNA; read-out: Activity (IC50 class, HIV-integrase inhibition). Here is the method:
HIV-Integrase Inhibition Activity. To evaluate in-vitro activity against HIV-integrase, 5 pmole of biotin labeled substrate DNA was bound to 100 μg of Streptavidin coated PVT SPA beads (Amersham Pharmacia Biotech). Recombinant integrase (0.26 ng) was incubated with the beads for 90 min at 37° C. Unbound enzyme was removed by washing the complex followed by addition of inhibitors and 0.1 fmol of P33 labeled target DNA. The reaction was stopped by adding EDTA to a final concentration of 10 mM. Samples were counted in TopCountNXT (Packard) and the CPM was used as a measure of integration. The reaction condition was as described in A. Engelman and R. Craigie, J. Virol. 69, 5908-5911 (1995). The sequences of substrate and target DNA were described in Nucleic Acid Research 22,1121-1122 (1994). Activity equal to A refers to a compound having IC50=0.005 to 0.010 μM while B and C denote compounds having IC50=0.010 to 0.030 μM and IC50>0.030 μM respectively.

In general, IC50 refers to the midpoint of a concentration-inhibition curve. As usually defined, the melting point is the temperature, or range, at which the solid turns liquid. Consider `CCCCN1CCn2c1nc(C(=O)NCc1ccc(F)cc1-n1cnc(C)n1)c(O)c2=O` [Example 15, N-(4-Fluoro-2-(3-methyl-1H-1,2,4-triazol-1-yl)benzyl)-1-butyl-6-hydroxy-5-oxo-1,2,3,5-tetrahydroimidazo[1,2-a]pyrimidine-7-carboxamide], for which the melting point was determined as 214 °C. The IC50 in data set [1] was in the range of 5 to 10 nM.
Regarding `O=C(NCc1ccc(F)cc1)c1nc2n(c(=O)c1O)CCN2Cc1ccccc1` [Example 16, N-(4-Fluorobenzyl)-1-benzyl-6-hydroxy-5-oxo-1,2,3,5-tetrahydroimidazo[1,2-a]pyrimidine-7-carboxamide], the melting point is 225 °C. The IC50 in data set [1] was above 30 nM.
The like results for `CNC(=O)c1cc(F)ccc1CNC(=O)c1nc2n(c(=O)c1O)CCN2Cc1ccccc1` [Example 18, N-(4-Fluoro-2-(methylcarbamoyl)benzyl)-1-benzyl-6-hydroxy-5-oxo-1,2,3,5-tetrahydroimidazo[1,2-a]pyrimidine-7-carboxamide] were, in that order, 206 °C (dec.) and 10 to 30 nM.
For `O=C(NCc1ccc(F)cc1-n1cncn1)c1nc2n(c(=O)c1O)CCN2Cc1ccccc1` [Example 19, N-(4-Fluoro-2-(1H-1,2,4-triazol-1-yl)benzyl)-1-benzyl-6-hydroxy-5-oxo-1,2,3,5-tetrahydroimidazo[1,2-a]pyrimidine-7-carboxamide] the same measures were 242 °C (dec.) and 10 to 30 nM.
The like results for `COCCN1CCn2c1nc(C(=O)NCc1ccc(F)cc1)c(O)c2=O` [Example 29, N-(4-Fluorobenzyl)-6-hydroxy-1-(2-methoxyethyl)-5-oxo-1,2,3,5-tetrahydroimidazo[1,2-a]pyrimidine-7-carboxamide] were, in that order, 166 °C and 10 to 30 nM.
Compound `O=C(NCc1ccc(F)cc1)c1nc2n(c(=O)c1O)CCN2CCO` [Example 30, N-(4-Fluorobenzyl)-6-hydroxy-1-(2-hydroxyethyl)-5-oxo-1,2,3,5-tetrahydroimidazo[1,2-a]pyrimidine-7-carboxamide] had a melting point of 203 °C. In addition, the IC50 in data set [1] was in the range of 10 to 30 nM.
For `O=C(NCc1ccc(F)cc1-n1cncn1)c1nc2n(c(=O)c1O)CCN2CCO` [Example 31, N-(4-Fluoro-2-(1H-1,2,4-triazol-1-yl)benzyl)-6-hydroxy-(2-hydroxyethyl)-5-oxo-1,2,3,5-tetrahydroimidazo[1,2-a]pyrimidine-7-carboxamide] the same measures were 220 to 222 °C and 10 to 30 nM.
